The values that follow come from PubChem BioAssay (NCI).

Among the test systems are LXFL 529 NSCLC; SNB-78 CNS; HOP-18 NSCLC; DMS 273 small cell lung; M19-MEL melanoma; KM20L2 colon; DMS 114 small cell lung; RXF-631 renal; DLD-1 colon.
What all share (assay): NCI tumour cell line growth inhibition, 48 h

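In this assay, cells in 96-well plates receive the compound at five concentrations for 48 hours. Endpoints are linearly interpolated between the surrounding concentrations. TGI: total growth inhibition.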

In the case of `CS(=O)(=O)c1ccc(-c2cc(-c3ccc(S(C)(=O)=O)cc3)[n+](-c3cc(-c4ccccc4)c([O-])c(-c4ccccc4)c3)c(-c3ccc(S(C)(=O)=O)cc3)c2)cc1`, the TGI with LXFL 529 NSCLC, in the assay on SNB-78 CNS, with HOP-18 NSCLC, in the assay with DMS 273 small cell lung, with M19-MEL melanoma and in the assay on KM20L2 colon was greater than 100 µM in each case. Also, the TGI in the assay on DMS 114 small cell lung and in the assay on RXF-631 renal was greater than 100 µM throughout.
In the case of `O=S(=O)(c1ccccc1)N1N=C2c3ccccc3CCC[C@H]2C1c1ccccc1` (stereo partly drawn), the TGI in the assay with LXFL 529 NSCLC, in the assay on SNB-78 CNS, with HOP-18 NSCLC, in the assay with DMS 273 small cell lung, in the assay on M19-MEL melanoma and in the assay on KM20L2 colon was greater than 100 µM throughout. For the same compound, the TGI in the assay on DLD-1 colon and in the assay with DMS 114 small cell lung was greater than 100 µM in each case.
With `CC(Oc1ccc(OCC2CCCCC2)cc1)C(=O)OCC(=O)c1ccc(-c2ccccc2)cc1` (stereo not drawn), the TGI in the assay with LXFL 529 NSCLC, in the assay on SNB-78 CNS, in the assay on HOP-18 NSCLC, in the assay with DMS 273 small cell lung, in the assay with M19-MEL melanoma and in the assay on DLD-1 colon was greater than 100 µM in each case. Further, the TGI in the assay with DMS 114 small cell lung is greater than 100 µM.
On to `COc1ccc(/C=C(\C(C)=O)C(=O)Nc2ccccc2)cc1`, for which the TGI with LXFL 529 NSCLC, with SNB-78 CNS, in the assay with HOP-18 NSCLC, with M19-MEL melanoma, in the assay on DLD-1 colon and in the assay on DMS 114 small cell lung was greater than 100 µM in each case.
Regarding `COc1cccc(C2CC23C(=O)NC(=O)NC3=O)c1` (stereo not drawn), the TGI with LXFL 529 NSCLC, with SNB-78 CNS, in the assay on DMS 273 small cell lung, in the assay on M19-MEL melanoma, with KM20L2 colon and in the assay with DMS 114 small cell lung was greater than 100 µM throughout.
Turning to `COC(=O)[C@@]1(C)/C(=N/NS(=O)(=O)c2ccc(C)cc2)CCC[C@@H]1C`, the TGI in the assay with LXFL 529 NSCLC, in the assay on SNB-78 CNS, in the assay with HOP-18 NSCLC, in the assay with M19-MEL melanoma, in the assay on KM20L2 colon and in the assay with DLD-1 colon was greater than 100 µM throughout. For the same compound, the TGI in the assay with DMS 114 small cell lung was determined as 45 µM.
Turning to `CC1(C)CC(=O)CC(=Nc2ccc([N+](=O)[O-])cc2)C1`, the TGI in the assay on LXFL 529 NSCLC, in the assay with SNB-78 CNS, in the assay with HOP-18 NSCLC, with DMS 273 small cell lung, with M19-MEL melanoma and in the assay with KM20L2 colon was greater than 100 µM each time. Further, the TGI with DLD-1 colon was 49.6 µM; in the assay with DMS 114 small cell lung it was greater than 100 µM; in the assay on RXF-631 renal, greater than 100 µM.
`C=C(C)C1CCC2(C)CC1c1c(c(C)cc3c1[nH]c1ccccc13)O2` (stereo not drawn): the TGI with LXFL 529 NSCLC, with DMS 273 small cell lung, in the assay with M19-MEL melanoma, in the assay with KM20L2 colon, in the assay on DLD-1 colon and in the assay with DMS 114 small cell lung was greater than 25 µM in each case.
On to `Cc1nn(C(=O)CC(=O)Nc2ccc(Cl)cc2)c(C)c1N=Nc1ccccc1C(=O)O`, for which the TGI in the assay with LXFL 529 NSCLC, with SNB-78 CNS, in the assay with DMS 273 small cell lung, in the assay with M19-MEL melanoma, in the assay on KM20L2 colon and in the assay on DLD-1 colon was greater than 100 µM throughout. This compound also displayed a TGI with DMS 114 small cell lung greater than 100 µM.
As to `CCCCC/C=C1\CCC(CN(C)C)C1=O` (stereo not drawn), the TGI in the assay on LXFL 529 NSCLC was found to be 3.9 µM; with SNB-78 CNS it was 58.7 µM; with HOP-18 NSCLC, 39.4 µM; in the assay on DMS 273 small cell lung it was 34 µM; with M19-MEL melanoma, 26.6 µM; in the assay with KM20L2 colon, 30.1 µM. Also, the values for the TGI with DLD-1 colon, in the assay with DMS 114 small cell lung and in the assay with RXF-631 renal were 14.4 µM, 29 µM and 28.3 µM, respectively.
Turning to `CN(C)CCNC(=O)c1cccc2c(Nc3ccc(S(=O)(=O)N=C(N)N)cc3)c3ccccc3nc12`, the TGI in the assay with LXFL 529 NSCLC is greater than 100 µM; in the assay on DMS 273 small cell lung it was 24.2 µM; in the assay with M19-MEL melanoma, 59.9 µM; in the assay on KM20L2 colon, greater than 100 µM; in the assay on DLD-1 colon, greater than 100 µM; with DMS 114 small cell lung, 15.1 µM.
Take `CCOC(=O)C1SC(=Nc2ccccc2)N=C1C` (stereo not drawn): the TGI in the assay with LXFL 529 NSCLC, in the assay with SNB-78 CNS, in the assay on HOP-18 NSCLC, in the assay with M19-MEL melanoma, in the assay with KM20L2 colon and with DLD-1 colon was greater than 100 µM in each case. Moreover, the TGI in the assay with DMS 114 small cell lung and in the assay with RXF-631 renal was greater than 100 µM each time.
Regarding `CCOC1c2cc(C(C)C)c(O)c(O)c2[C@@]23CCCC(C)(C)C2C1OC3=O` (stereo partly drawn), the TGI in the assay with LXFL 529 NSCLC, with SNB-78 CNS, with DMS 273 small cell lung, in the assay with M19-MEL melanoma, in the assay with KM20L2 colon and in the assay on DLD-1 colon was greater than 100 µM each time. Also, the TGI in the assay with DMS 114 small cell lung was greater than 100 µM.
As to `C[N+](C)(C)CC1CCC/C1=N\OC(=O)c1ccccc1` (stereo not drawn), the TGI in the assay on LXFL 529 NSCLC, in the assay with SNB-78 CNS, with HOP-18 NSCLC, in the assay with M19-MEL melanoma, with KM20L2 colon and with DLD-1 colon was greater than 100 µM throughout. Further, in the assay with DMS 114 small cell lung, the TGI was greater than 100 µM.
Turning to `CCOC(=O)/C(=C/c1ccc(N(C)C)cc1)N(CC)CC`, the TGI in the assay on LXFL 529 NSCLC is greater than 100 µM; with SNB-78 CNS it was greater than 100 µM; with M19-MEL melanoma it was 60.1 µM; in the assay with KM20L2 colon, greater than 100 µM; in the assay with DMS 114 small cell lung it was greater than 100 µM.
With `Cn1cnnc1Sc1c([N+](=O)[O-])ncn1C`, the TGI in the assay with LXFL 529 NSCLC was 63 µM; in the assay with SNB-78 CNS it was greater than 100 µM; in the assay on HOP-18 NSCLC it was 82.5 µM; in the assay on DMS 273 small cell lung, greater than 100 µM; in the assay on DLD-1 colon, greater than 100 µM; in the assay on DMS 114 small cell lung, greater than 100 µM. In the assay on RXF-631 renal, this compound had a TGI greater than 100 µM.
On to `O=[N+]([O-])c1ccc(-c2cnc3ccccn23)cc1`, for which the TGI with LXFL 529 NSCLC, in the assay on SNB-78 CNS, with DMS 273 small cell lung, in the assay on M19-MEL melanoma, in the assay on KM20L2 colon and with DMS 114 small cell lung was greater than 100 µM throughout.
`COc1ccc(C(C#N)NNC(=O)Cc2ccccc2)cc1OC` (stereo not drawn): the TGI in the assay with LXFL 529 NSCLC, in the assay on SNB-78 CNS, in the assay on HOP-18 NSCLC, with DMS 273 small cell lung, in the assay with M19-MEL melanoma and in the assay with DLD-1 colon was greater than 100 µM in each case. In the assay on DMS 114 small cell lung, the TGI is greater than 100 µM.
For the compound `O=C(CSc1c2ccccc2nc2ccccc12)Nc1ccccc1-c1ccccc1NC(=O)CSc1c2ccccc2nc2ccccc12`, the TGI in the assay on LXFL 529 NSCLC is 25.9 µM; in the assay with SNB-78 CNS, 92.2 µM; with HOP-18 NSCLC it was greater than 100 µM; with DMS 273 small cell lung, greater than 100 µM; in the assay on M19-MEL melanoma it was 61.1 µM; with KM20L2 colon, greater than 100 µM. In addition, the TGI worked out at 33.4 µM in the assay with DLD-1 colon and 46.8 µM in the assay with DMS 114 small cell lung.
On to `COC(=O)C(C(=O)Cc1ccccc1[N+](=O)[O-])C(=O)OC`, for which the TGI in the assay on LXFL 529 NSCLC, with HOP-18 NSCLC, with DMS 273 small cell lung, in the assay on M19-MEL melanoma, in the assay with KM20L2 colon and in the assay with DLD-1 colon was greater than 100 µM throughout. The compound further yielded a TGI in the assay with RXF-631 renal greater than 100 µM.
Turning to `CC(C)=CC1CC(=[N+]=[N-])C(=O)C1(C)C` (stereo not drawn), the TGI in the assay with LXFL 529 NSCLC, in the assay on SNB-78 CNS, in the assay with HOP-18 NSCLC, with M19-MEL melanoma, in the assay on KM20L2 colon and with DLD-1 colon was greater than 100 µM each time. The compound further showed a TGI in the assay on DMS 114 small cell lung greater than 100 µM.
